Reference: article PMC6880817, “Palladium-catalyzed synthesis and nucleotide pyrophosphatase inhibition of benzo[4,5]furo[3,2-b]indoles” (Beilstein Journal of Organic Chemistry, 2019)
Where two headings read alike, the source gives them in different places.

What was measured:
h-NPP-1 = molecular target: T1, h-NPP-1 (Homo sapiens, UniProt P22413); assay: Nucleotide pyrophosphatase inhibition assay (colorimetric, pNP-TMP substrate), h-NPP-1; format: biochemical; settings: for interaction with enzyme h-NPP-1: result in words
T1 construct: made in house; host or cells: COS-7 cells transiently transfected with a plasmid expressing human NPP-1; lysate/membrane fraction used as the enzyme
T1 sequence (P22413 1-925): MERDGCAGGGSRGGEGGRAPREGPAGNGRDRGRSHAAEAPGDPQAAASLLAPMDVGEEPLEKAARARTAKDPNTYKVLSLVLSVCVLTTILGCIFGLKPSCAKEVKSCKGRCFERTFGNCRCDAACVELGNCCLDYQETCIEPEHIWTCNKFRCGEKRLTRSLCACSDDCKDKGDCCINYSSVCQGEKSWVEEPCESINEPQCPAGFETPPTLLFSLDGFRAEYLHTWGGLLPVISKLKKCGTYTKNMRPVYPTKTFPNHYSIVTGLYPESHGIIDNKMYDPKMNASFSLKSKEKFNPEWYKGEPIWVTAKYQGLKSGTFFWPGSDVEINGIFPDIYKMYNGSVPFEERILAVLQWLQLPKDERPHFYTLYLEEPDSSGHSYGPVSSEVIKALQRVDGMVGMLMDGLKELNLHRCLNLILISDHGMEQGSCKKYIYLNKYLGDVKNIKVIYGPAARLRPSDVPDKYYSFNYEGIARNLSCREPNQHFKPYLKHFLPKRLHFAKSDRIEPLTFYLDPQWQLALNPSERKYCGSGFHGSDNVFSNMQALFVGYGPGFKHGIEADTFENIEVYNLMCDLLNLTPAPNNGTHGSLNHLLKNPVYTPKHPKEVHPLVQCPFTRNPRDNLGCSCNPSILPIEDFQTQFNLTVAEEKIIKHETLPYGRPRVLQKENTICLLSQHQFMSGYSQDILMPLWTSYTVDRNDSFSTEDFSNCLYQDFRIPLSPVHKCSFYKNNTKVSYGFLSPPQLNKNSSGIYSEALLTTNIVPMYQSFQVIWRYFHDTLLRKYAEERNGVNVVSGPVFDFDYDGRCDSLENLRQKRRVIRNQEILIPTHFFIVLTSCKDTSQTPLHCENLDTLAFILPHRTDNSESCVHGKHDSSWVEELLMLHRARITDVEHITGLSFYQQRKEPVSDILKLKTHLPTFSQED
Experimental: (§1) The inhibition potential of all the sulphonate derivatives against NPP1 and NPP3, was determined by considering an already reported colorimetric method with minor modifications. The reaction buffer was comprised of 50 mM Tris-hydrochloric acid, 5 mM magnesium chloride (MgCl2) and 0.1 mM zinc chloride (ZnCl2) with final pH 9.5. For initial screening of compounds, first enzyme and substrate parameters (concentration, temperature, time) were optimized. The reaction assay was performed at 100 µL well volume containing assay buffer, 10 µL of 1 mM test compound prepared in 10% DMSO, enzymes NPP1 (35 ng), NPP3 (94 ng) and assay buffer. The reaction mixture was incubated at 37 °C, 10 minutes for NPP1 and NPP3. Absorbance was taken at wavelength of 405 nm as pre-read by using a microplate reader (BioTek FLx800, Instruments, Inc. USA). After pre-read the artificial substrate p-nitrophenyl 5'-thymidine monophosphate (pNP-TMP), 400 µM for NPP1 and 600 µM in case of NPP3, was added followed by a second incubation at 37 °C, 15 minutes for NPP1 and NPP3. Absorbance was taken as after read. All the experiments were performed in triplicate.
(§2) Cell transfection with human NPPs. Analogous as previously described, COS-7 cells were transfected with plasmids expressing human NPPs ((NPP-1) or (NPP-3)) in 10 cm plates, by using Lipofectamine. The confluent cells were incubated for 5 h at 37 °C in DMEM/F-12 in the absence of fetal bovine serum and with 6 µg of plasmid DNA and 24 µL of lipofectamine reagent. Subsequently, the same volume of DMEM/F-12 containing 20% FBS was added to stop the transfection and cells were harvested 48–72 h later.
(§3) Preparation of membrane fractions. Analogous as previously described, the transfected cells were washed three times with Tris–saline buffer at 4 °C and then the cells were collected by scraping in the harvesting buffer (95 mM NaCl, 0.1 mM PMSF, and 45 mM Tris buffer, pH 7.5). Afterwards, the cells were washed twice by centrifugation at 300g for 5 min at 4 °C [4]. These cells were resuspended in the harvesting buffer containing 1 0 µg/mL aprotinin and then sonicated. Cellular and nuclear debris were discarde d by 10 min centrifugation (300 g at 4 °C). Glycerol (final concentration of 7.5%) was added to the resulting supernatant and all the samples were kept at −80 °C until used. Bra dford microplate assay was used for the estimation of protein concentration. Bovine serum albumin was used as a reference standard.
(§4) Protocol of nucleotide pyrophosphatase (h -NPP-1 & h-NPP-3) activity. Analogous as previously described , the conditions for the assay were optimized with the slight modifications in previously used spectrophotometric method. The reaction was carried out in the assay buffer which contained 5 mM MgCl 2, 0.1 mM ZnCl 2, 25% glycerol and 50 mM tris-hydrochloride (pH: 9.5). Initial screening was performed at a concentration of 0.1 mM of the tested compounds. The total volume of 100 µL contained 70 µL of the assay buffer, 10 µL of tested compound (0.1 mM with final DMSO 1% (v/v)) and 10 µL of h -NPP-1 (27 ng of protein from CO S cell lysate in assay buffer ) or 10 µL of h -NPP-3 (25 ng of protein from COS cell lysate in assay buffer ). The mixture was pre -incubated for 10 minutes at 37 °C and absorbance was measured at 405 nm as pre -read using microplate reader (BioTek FLx800, Instruments, Inc. USA). The reaction was then initiated by the addition of 10 µL of p-Nph-5-TMP substrate at a final concentration of 0.5 mM and the reaction mixture was incubated for 30 more min at 37 °C. The change in the absorbance was measured as after -read. The activity of each compound was compared with the reaction in absence of tested compounds/inhibitors.
(§5) 3 activity were further evaluated for determination of IC 50 values. For this purpose, their dose response curves were obtained by assaying each inhibitor concentration against both NPPs […]
(§6) using the above mentioned reaction conditions. […]

h-NPP-3 = molecular target: T2, h-NPP-3 (Homo sapiens, UniProt O14638); assay: Nucleotide pyrophosphatase inhibition assay (colorimetric, pNP-TMP substrate), h-NPP-3; format: biochemical; settings: for selectivity of inhibitory response towards h-NPP-3: h-NPP-3 versus h-NPP-1, result in words
T2 construct: made in house; host or cells: COS-7 cells transiently transfected with a plasmid expressing human NPP-3; lysate/membrane fraction used as the enzyme
T2 sequence (O14638 1-875): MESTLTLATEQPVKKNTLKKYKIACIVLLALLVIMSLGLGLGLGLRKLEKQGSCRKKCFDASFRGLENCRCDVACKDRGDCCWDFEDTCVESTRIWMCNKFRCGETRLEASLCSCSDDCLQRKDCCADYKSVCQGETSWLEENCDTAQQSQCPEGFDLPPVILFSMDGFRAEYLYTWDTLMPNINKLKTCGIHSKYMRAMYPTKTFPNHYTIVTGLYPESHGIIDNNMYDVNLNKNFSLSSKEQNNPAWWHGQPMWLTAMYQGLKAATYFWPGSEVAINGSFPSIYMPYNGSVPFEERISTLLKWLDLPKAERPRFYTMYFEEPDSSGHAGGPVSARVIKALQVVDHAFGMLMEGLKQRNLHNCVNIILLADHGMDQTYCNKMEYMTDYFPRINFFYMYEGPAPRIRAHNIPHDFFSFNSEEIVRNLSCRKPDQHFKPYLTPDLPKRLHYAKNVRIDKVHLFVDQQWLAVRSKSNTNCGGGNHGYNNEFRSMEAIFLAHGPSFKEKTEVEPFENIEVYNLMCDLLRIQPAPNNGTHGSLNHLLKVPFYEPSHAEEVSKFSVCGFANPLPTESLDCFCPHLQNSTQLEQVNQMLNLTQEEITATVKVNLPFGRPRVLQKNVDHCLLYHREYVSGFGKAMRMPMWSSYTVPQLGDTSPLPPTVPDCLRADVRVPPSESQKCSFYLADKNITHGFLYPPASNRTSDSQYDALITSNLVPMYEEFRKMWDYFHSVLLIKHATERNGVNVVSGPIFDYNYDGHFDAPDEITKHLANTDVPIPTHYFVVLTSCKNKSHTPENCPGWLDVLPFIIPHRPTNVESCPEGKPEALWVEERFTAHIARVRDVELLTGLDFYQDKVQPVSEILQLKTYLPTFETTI
Experimental: as §1, §2, §3, §4, §5, §6

[1] = human recombinant NPP1, pNP-TMP substrate, pH 9.5, 37 °C, absorbance 405 nm, read-out: h-NPP-1 IC50 (µM) ± SEM
[2] = human recombinant NPP3, pNP-TMP substrate, pH 9.5, 37 °C, absorbance 405 nm, read-out: h-NPP-3 IC50(µM) ± SEM
[3] = read-out: h-NPP-3 IC50 ± SEM (unit inferred)

Row | Structure (SMILES) | IC50 (h-NPP-1; [1]) [µM] | IC50 (h-NPP-3; [2]) [µM] | melting point [°C] | selectivity of inhibitory response towards h-NPP-3 (h-NPP-3) | other results
1 | c1ccc(Cn2c3ccccc3c3oc4ccccc4c32)cc1 [Compound 5h] | 2.62 ± 0.03 | 0.27 ± 0.06 |  |  | 
2 | FC(F)(F)c1cccc(-n2c3ccccc3c3oc4ccccc4c32)c1 [Compound 5d] | 3.57 ± 0.03 | 0.49 ± 0.04 | 178 to 179 |  | 
3 | c1ccc2c(c1)oc1c3ccccc3n(C3CCCCC3)c21 [Compound 5j] | 6.14 ± 0.09 | 2.39 ± 0.05 | 163 to 164 |  | 
4 | COc1ccc(-n2c3ccccc3c3oc4ccccc4c32)cc1 [Compound 5e] | > 100 |  |  | selective inhibitory response towards nucleotide pyrophosphatase enzyme h-NPP-3 | IC50 (h-NPP-3; read-out: inhibitory value for h-NPP-3, IC50 ± SEM): 0.26 ± 0.01 µM
5 | c1ccc(Cn2c3ccccc3c3oc4c5ccccc5n(Cc5ccccc5)c4c32)cc1 [Compound 6e] | 0.53 ± 0.09 | 0.21 ± 0.04 |  |  | 
6 | Cc1ccc(-n2c3ccccc3c3oc4ccccc4c32)cc1 [Compound 5b] | 2.84 ± 0.06 | 0.59 ± 0.02 | 134 to 135 |  | 
7 | CCCCCCCn1c2ccccc2c2oc3ccccc3c21 [Compound 5i] | 3.27 ± 0.08 | 2.55 ± 0.07 |  |  | 
8 | COc1ccc(-n2c3ccccc3c3oc4ccccc4c32)cc1OC [Compound 5f] |  |  | 175 to 176 |  | 
9 | COc1ccc(-n2c3ccccc3c3oc4c5ccccc5n(-c5ccc(OC)cc5)c4c32)cc1 [Compound 6d] | 1.38 ± 0.09 | 0.18 ± 0.01 |  |  | 
10 | c1ccc(-n2c3ccccc3c3oc4ccccc4c32)cc1 [Compound 5a] | > 100 | 1.38 ± 0.03 | 137 to 139 | selective inhibitory response towards nucleotide pyrophosphatase enzyme h-NPP-3 | 
11 | Fc1ccc(-n2c3ccccc3c3oc4c5ccccc5n(-c5ccc(F)cc5)c4c32)cc1 [Compound 6b] | > 100 |  |  | highly selective towards h-NPP-3 | interaction with enzyme h-NPP-1 (h-NPP-1): no interaction with enzyme h-NPP-1; IC50 (h-NPP-3; [3]): 0.13 ± 0.06 µM
12 | FC(F)(F)c1cccc(-n2c3ccccc3c3oc4c5ccccc5n(-c5cccc(C(F)(F)F)c5)c4c32)c1 [Compound 6c] | > 100 |  |  | highly selective towards h-NPP-3 | interaction with enzyme h-NPP-1 (h-NPP-1): no interaction with enzyme h-NPP-1; IC50 (h-NPP-3; [3]): 0.28 ± 0.04 µM
13 | Cc1ccc(-n2c3ccccc3c3oc4c5ccccc5n(-c5ccc(C)cc5)c4c32)cc1 [Compound 6a] |  | 0.61 ± 0.09 |  |  | IC50 (h-NPP-1; read-out: inhibitory value for h-NPP-1, IC50 ± SEM): 0.11 ± 0.06 µM
